Test results reported in ChEMBL document CHEMBL1806359, “Synthesis and evaluation of bidentate ligands designed to interact with PDZ domains” (Bioorg Med Chem, 2011).

Biological target: Disks large homolog 4 (Mus musculus) (UniProt Q62108)
Experiment: Binding affinity to Swiss mouse brain PSD95 domain assessed as inhibition of PSD95-5-HT2A receptor C-terminal decapeptide interaction after overnight incubation by chemiluminescence assay
Format: tissue-based

Sequence of Disks large homolog 4 (Mus musculus) (Q62108 whole entry, looked up, the tested form may be a part): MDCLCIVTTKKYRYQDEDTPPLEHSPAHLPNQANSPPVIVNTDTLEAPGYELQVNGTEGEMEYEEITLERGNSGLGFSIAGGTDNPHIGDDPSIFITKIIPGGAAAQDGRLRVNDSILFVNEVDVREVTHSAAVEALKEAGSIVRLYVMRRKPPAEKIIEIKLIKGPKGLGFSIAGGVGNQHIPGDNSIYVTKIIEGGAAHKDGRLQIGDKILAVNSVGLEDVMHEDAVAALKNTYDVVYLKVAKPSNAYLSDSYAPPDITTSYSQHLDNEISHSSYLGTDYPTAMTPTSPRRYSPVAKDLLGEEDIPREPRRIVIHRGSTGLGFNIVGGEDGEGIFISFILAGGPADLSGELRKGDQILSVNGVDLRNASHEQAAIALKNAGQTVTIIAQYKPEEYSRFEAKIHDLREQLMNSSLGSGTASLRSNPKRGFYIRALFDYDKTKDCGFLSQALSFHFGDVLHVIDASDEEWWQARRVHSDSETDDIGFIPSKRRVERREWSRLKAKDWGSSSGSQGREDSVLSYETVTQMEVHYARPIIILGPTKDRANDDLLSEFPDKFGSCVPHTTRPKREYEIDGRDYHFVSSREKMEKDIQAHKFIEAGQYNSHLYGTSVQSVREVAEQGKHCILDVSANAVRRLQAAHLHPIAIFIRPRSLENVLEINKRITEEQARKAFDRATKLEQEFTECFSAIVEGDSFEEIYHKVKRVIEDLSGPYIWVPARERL

SMILES | inhibition
Cc1c(C(=O)NCCNC(=O)[C@@H](N)Cc2c[nH]c3ccccc23)[nH]c2ccc(C(=O)O)cc12 | Dose-dependent effect
Cc1c(C(=O)NCCN)[nH]c2ccc(C(=O)O)cc12 | Dose-dependent effect
Cc1c(C(=O)O)[nH]c2ccc(C(=O)O)cc12 | Dose-dependent effect
